For orientation: inhibition means the share of the control response that was lost under treatment. Low values mean a weak effect, high ones a strong effect. Usually Ki stands for the equilibrium dissociation constant of an inhibitor or competing ligand from its target.

Entries after “also recorded” stand apart in the source; their conditions may differ.

One data set relates to StAR. Description: Western blot, expression of StAR in MA-10 cells. The format is cell-based, mouse. Here is the method: (§1) Mouse Leydig cell line (MA-10) was grown in Waymouth media containing 15% horse serum, 5% fetal bovine serum, and 1× gentamycin, which was replaced with […] G418 (geneticin) for VDAC1 knockdown (ΔVDAC1) MA10 cells. Cells were maintained at 37° C. in a humidified incubator under 5% CO2. To isolate mitochondria, cells were removed from tissue culture plates by gentle scrapping in phosphate-buffered saline at room temperature, incubated in hypotonic buffer (10 mM HEPES, pH 7.4) for 30 to 40 min, and mitochondria were isolated following readily available procedures. The mitochondrial preparation was verified by Western blotting with the cytochrome P450 SCC enzyme (Corgen, Tapai, Taiwan) and calnexin antibodies (Santa Cruz Biotechnology, Inc., Santa Cruz, Calif.).
Protein (12.5 μg) was separated by 15% SDS-polyacrylamide gel electrophoresis and transferred to a polyvinylidinedifluoride membrane (Millipore Corporation, Billerica, Mass.). The membrane was blocked with 3% nonfat dry milk for 45 min, probed overnight with the primary antibodies, and then incubated with […] goat anti-rabbit or anti mouse IgG (Thermo Fisher Scientific, Waltham, Mass.). Signals were developed with chemiluminescent reagent (Thermo Fisher Scientific). For loading control of all Western blots, the membrane was stained with β-actin antibody, which was previously independently stained with StAR or 3-β-hydroxysteroid dehydrogenase (3βHSD2) or VDAC1 and VDAC2 antiserum. The band intensity was determined by using Image Quant 5.2 (Phosphorimager; GE Healthcare, Chalfont St. Giles, Buckinghamshire, UK). Densitometric calculation may reflect the ratio of σ1 or VDAC2 and β-actin following an established procedure that is readily available.
The role of KSCM ligands on the expression of StAR in MA-10 cells was evaluated. In all the cases studied, both the 37-kDa unimported and the 30-kDa mitochondrial-imported, mature protein, were observed but not the 32-kDa transient intermediate protein. The same membrane was probed first with StAR antibody and then with β-actin antibody independently. […] Coimmunoprecipitation experiments were performed to determine whether there was a direct interaction between σ1 receptor and StAR or VDAC2. […] StAR is a 37-kDa protein and thus it is higher than the 28-kDa σ1 (FIG. 5A), confirming that StAR interaction with the σ1 receptor.
Background: In western blotting, separated proteins are transferred to a membrane and probed.

A short description of data set [1]: Cell viability assay (MTT) in MA-10 cells. To be noted: mouse, MA-10 Leydig cells, read-out: decrease in cell viability. In kind it is cell-based, mouse. Here is the method: as §1
Stock solutions (1 mM) of the ligands were made in 1× phosphate buffered saline, filter-sterilized, and then further diluted up to 1 μM with serum-free medium. Cell viability was determined by the 3-[4,5-dimethylthiazol-2yl]-2,5-diphenyltetrazolium bromide assay using a commercially available kit following the manufacturer's instructions (Promega, Madison, Wis.). MA-10 cells were plated in a 96-well plate at an initial density of 4×10^3 cells per well for 24 h at 37° C. in 5% CO2 atm. After 24 h of serum starvation, the culture media were changed to serum-free media containing 1, 5, 10, 50, and 100 nM concentration for each KSCM ligand. Next, the cells were incubated for 2 to 3 h with 0.5 mg/ml of 3-[4,5-dimethylthiazol-2yl]-2,5-diphenyltetrazolium bromide reagent and lysed with dimethyl sulfoxide, and the absorbance was measured at 550 nm (FlexStation 3; Molecular Devices, Sunnyvale, Calif.).

The target in another data set is T1, Alpha2C (Homo sapiens, UniProt P18825).
T1 construct: expressed in transfected cells
T1 sequence (P18825 1-462): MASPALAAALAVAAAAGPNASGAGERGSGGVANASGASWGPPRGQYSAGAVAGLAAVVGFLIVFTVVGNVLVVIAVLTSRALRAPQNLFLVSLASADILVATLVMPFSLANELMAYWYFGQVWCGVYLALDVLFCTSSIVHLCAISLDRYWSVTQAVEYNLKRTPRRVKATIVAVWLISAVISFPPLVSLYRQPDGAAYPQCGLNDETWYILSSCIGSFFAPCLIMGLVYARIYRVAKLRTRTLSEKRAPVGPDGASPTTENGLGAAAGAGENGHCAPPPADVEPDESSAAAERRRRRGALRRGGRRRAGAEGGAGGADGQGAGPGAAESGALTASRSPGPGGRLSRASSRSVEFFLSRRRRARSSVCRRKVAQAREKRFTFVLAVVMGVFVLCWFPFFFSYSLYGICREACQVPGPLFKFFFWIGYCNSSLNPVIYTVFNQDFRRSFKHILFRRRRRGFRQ
As to the kind of experiment: Primary binding assay at non-sigma receptors: Alpha2C. To be noted: 10 μM (final) assay concentration. Here is the method:
(§2) Initial primary binding screening assays were performed using a 50 μM (initial)−10 μM (final) assay concentration of reference and test compounds.

The target of a further data set is T2, 5-HT2A (Homo sapiens, UniProt P28223).
T2 construct: expressed in transfected cells
Description: Primary binding assay at non-sigma receptors: 5-HT2A. The settings on record: 10 μM (final) assay concentration. Here is the method:
as §2

In another data set the target is T3, σ2 receptor (Rattus norvegicus, UniProt Q5U3Y7).
T3 construct: PC12 cell homogenates for σ2 receptors were added to the wells; endogenous in cells; host or cells: PC12 cell homogenate
T3 sequence (Q5U3Y7 1-176): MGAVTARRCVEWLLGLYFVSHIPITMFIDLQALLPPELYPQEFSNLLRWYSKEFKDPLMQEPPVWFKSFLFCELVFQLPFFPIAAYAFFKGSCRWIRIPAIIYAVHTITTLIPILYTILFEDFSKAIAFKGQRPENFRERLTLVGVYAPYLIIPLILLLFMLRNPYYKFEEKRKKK
As to the kind of experiment: Secondary binding assay, Ki determination at σ2 receptor ([3H]DTG, PC12 cell homogenates). The settings on record: read-out: σ-2 (Ki).

Another data set concerns the target T4, M4 (Homo sapiens, UniProt P08173).
T4 construct: expressed in transfected cells
T4 sequence (P08173 1-479): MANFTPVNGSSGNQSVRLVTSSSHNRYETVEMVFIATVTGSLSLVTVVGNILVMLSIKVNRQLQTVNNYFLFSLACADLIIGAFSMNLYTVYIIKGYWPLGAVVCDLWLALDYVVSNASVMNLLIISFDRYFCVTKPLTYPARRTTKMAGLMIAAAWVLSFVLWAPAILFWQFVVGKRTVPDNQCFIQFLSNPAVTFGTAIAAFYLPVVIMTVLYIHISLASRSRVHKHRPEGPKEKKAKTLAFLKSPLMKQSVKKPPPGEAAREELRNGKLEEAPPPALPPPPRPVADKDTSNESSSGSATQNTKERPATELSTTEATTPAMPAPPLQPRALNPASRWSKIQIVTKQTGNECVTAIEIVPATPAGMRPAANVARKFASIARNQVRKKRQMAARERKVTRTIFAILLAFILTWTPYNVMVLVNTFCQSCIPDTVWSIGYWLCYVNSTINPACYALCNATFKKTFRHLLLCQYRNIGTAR
As to the kind of experiment: Primary binding assay at non-sigma receptors: M4. The settings on record: 10 μM (final) assay concentration. Here is the method:
as §2

T2 sequence (P28223 whole entry): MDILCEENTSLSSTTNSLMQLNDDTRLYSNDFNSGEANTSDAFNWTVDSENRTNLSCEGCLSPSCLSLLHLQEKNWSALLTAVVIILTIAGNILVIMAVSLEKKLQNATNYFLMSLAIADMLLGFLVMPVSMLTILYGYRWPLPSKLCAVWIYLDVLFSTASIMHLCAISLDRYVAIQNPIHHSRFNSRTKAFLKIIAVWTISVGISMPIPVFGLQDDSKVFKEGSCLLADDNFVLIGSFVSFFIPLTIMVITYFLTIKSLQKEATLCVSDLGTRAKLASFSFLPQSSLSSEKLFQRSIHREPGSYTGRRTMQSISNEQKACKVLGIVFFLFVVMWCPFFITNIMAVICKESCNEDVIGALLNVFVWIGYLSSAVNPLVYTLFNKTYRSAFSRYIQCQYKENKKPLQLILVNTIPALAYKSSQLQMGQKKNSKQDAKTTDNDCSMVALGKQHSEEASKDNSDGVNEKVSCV
Description for σ2 receptor: Secondary binding assays, Ki determinations were performed by measuring the inhibition of radioligand binding by various concentrations of test and reference compound. […] [^3H]Pentazocine (3 nM) was used as the radioligand for σ1 receptors and [^3H]Ditolyglguanidine (DTG) (1 nM) as the radioligand for σ2 receptors. Aliquots (50 μl) of radioligand were dispensed into the wells of a 96-well plate containing 100 μl of Standard Binding Buffer. Then, duplicate 50-μl aliquots of the test and reference compound dilutions were added. Finally, either crude membrane fractions prepared from rat brain homogenate for σ1 receptors or PC12 cell homogenates for σ2 receptors were added to the wells, and the plates shielded from light to prevent photolysis of light sensitive ligands.
For σ1 receptors, the reactions were incubated at 37° C. for 2.5 h, and for σ2 receptors, the reactions were incubated at room temperature for 2 h. Labeled receptors were harvested by rapid filtration on to Whatman GF/B glass filters pre-soaked with 0.3% polyethyleneimine using 96-well Brandel harvester. Four rapid 500 μl washes are performed with chilled Standard Binding buffer to reduce non-specific binding. Filters were placed in 6-ml scintillation tubes and allowed to dry overnight. EcoScint scintiallation cocktail (National Diagnostics) was added to each tube prior to counting. […] The filter mats were dried, the scintillate melted onto the filters and the radioactivity counted in a Microbeta scintillation counter.
Raw data (dpm) representing total radioligand binding (i.e., specific+nonspecific binding) were plotted as a function of the logarithm of the molar concentration of the competitor (i.e., test or reference compound).

In the case of `Cc1c(C(=O)N(CCCN2CCCCC2)c2ccccc2)oc2ccccc12` [KSCM-5, 3-Methyl-N-phenyl-N-(3-(piperidin-1-yl)propyl)benzofuran-2-carboxamide], the “expression of imported 30-kDa StAR (in words)” value in the data set on StAR is “unchanged”. For the same molecule, the “expression of unimported 37-kDa StAR (in words)” value in the data set with StAR was “not and unchanged”. The cytotoxicity at 24 h, 1 nM in data set [1] turned out to be 28%. Besides, the cytotoxicity at 24 h, 100 nM in data set [1] worked out at 74%. Also, the inhibition at 10 µM at Alpha2C was found to be 61.9%; on 5-HT2A, 18.1%; at M4 it was 43.1%. Besides, the Ki at σ2 receptor is 16 nM.

For the molecule `COc1ccc2c(C)c(C(=O)N(CCCN3CCCCC3)c3ccccc3)oc2c1` [KSCM-11, 6-Methoxy-3-methyl-N-phenyl-N-(3-(piperidin-1-yl)propyl)benzofuran-2-carboxamide], the “expression of imported 30-kDa StAR (in words)” value in the data set on StAR was “unchanged”. Further, the “expression of unimported 37-kDa StAR (in words)” value in the data set with StAR is “not and unchanged”. For the same molecule, the cytotoxicity at 24 h in data set [1] (1-5 nM) was 3.3%. Besides, the inhibition at 10 µM at Alpha2C is 49%; on 5-HT2A, 61.2%; at M4, 68.4%. For the same molecule, the Ki on σ2 receptor was determined as 41 nM.

For the molecule `COc1cc2oc(C(=O)N(CCCN3CCCCC3)c3ccccc3)c(C)c2cc1OC` [KSCM-1, 5,6-Dimethoxy-3-methyl-N-phenyl-N-(3-(piperidin-1-yl)propyl)benzofuran-2-carboxamide], in the data set with StAR, the “expression of imported 30-kDa StAR (in words)” value is listed as “unaffected” and the “expression of unimported 37-kDa StAR (in words)” value is “increased (and/or stabilized); also recorded: stabilizes the expression of unimported StAR”. Further, in data set [1], the cytotoxicity at 24 h, 1 nM was determined as 3.5% and the cytotoxicity at 24 h, 100 nM was determined as 16%. The inhibition at 10 µM at Alpha2C was 78.9%. This molecule registered an inhibition at 10 µM on 5-HT2A of 76.6%. Moreover, at σ2 receptor, the Ki was 528 nM. For the same molecule, the inhibition at 10 µM on M4 was 54.4%.
